According to US20010049373A1, “Materials and methods for killing nematodes and nematode eggs” (priority 2000, published 2001):

Legend:
[1] = test system: Caenorhabditis elegans; assay: C. elegans L1 larvae dose-response, 5 day visual viability score (Examples 2 and 7); format: in vivo; design: key: Dead: only stiff L1s (no movement); Dead (L4): worms are dead, but at a later larval stage; majority of worms are L1 (based on size); majority of worms are L2 (based on size); majority of worms are L3 (based on size); majority of worms are L4 (based on size); AD: majority of worms are adult; #AD: 5 adult worms or less; B!: sterile (0-25 progeny); B: low broodsize (25-100 progeny); ˜B: moderate broodsize (100-250 progeny); <: reduced broodsize (250-500 progeny); OK: no effect (˜1000+ progeny); details: day 5, Table 3; for 5 Day Visual Score V6: 0.3 μM (procedure of Example 2); for 5 Day Visual Score V5: 0.9 μM (procedure of Example 2); for 5 Day Visual Score V4: 2.6 μM (procedure of Example 2); for 5 Day Visual Score V3: 7.8 μM (procedure of Example 2); for 5 Day Visual Score V2: 23.3 μM (procedure of Example 2); for 5 Day Visual Score V1: 70 μM (procedure of Example 2)
Experimental: Caenorhabditis elegans adults were grown on Nematode Growth Medium (NGM) until they produced eggs, then the adults were removed.
The eggs were allowed to hatch, and the L1 larvae collected. See The Neniatode Caenorhabditis elegans (1988) Cold Spring Harbor Laboratory Press. Using a Matrix Programmable Pipette, the L1s were distributed into 96-well tissue culture plates, 20 L1 in 50 μl NGM per well. Antibiotic/Antimyotic was added to each well, and 1% by weight E. coli strain HB101. The subject anthelmintic compounds were stored at 5 mM in 100% DMSO. 0.7 μl of compounds 1-31 were added to the left-most column of wells to yield a final concentration of 70 μM in 1.4% DMSO, with 1.4% DMSO only as the control. The compounds were then subjected to 5 more 3-fold dilutions from left to right to yield 6 column concentrations of 70 μM, 23.3 μM, 7.8 μM, 2.6 μM, 0.9 μM, and 0.3 μM. Plates were stored in air-tight Rubbermaid plastic boxes at 20° C. The nematodes had cleared all control wells by day 4, and nematode viability was scored by visual examination under a 100× dissecting microscope on day 5. A visual viability scoring system was used as follows:
If several classes of worms exist in a well, then all classes are scored. If adults are present, then the brood score is also recorded. Thus, “L1/L2” would mean a mixture of L1's and L2's are present in the well. “L4/#AD/B” would mean that a mixture of L4's and adults are resent in the well. The “#AD” would mean that there are 6 or less adults, and the “B” would mean that there were 100 progeny or less.
Column VI has a compound concentration of 70 μM with sequential 3-fold dilutions reported in columns V2, V3, V4, V5, and V6, respectively, such that the V6 concentration was 0.3 μM.
(§1) The nematicidal activity of anthelmintic Compositions 48-118 were determined in accordance with the procedure outlined in Example 2.

[2] = test system: Caenorhabditis elegans; assay: HTS runs (initial and follow-up): mOD, % Run and visual score (Table 3); format: in vivo; design: key to Initial HTS Run Visual Score / Follow-up HTS Run Visual Score: Dead: only stiff L1s (no movement); Dead (L4): worms are dead, but at a later larval stage; majority of worms are L1 (based on size); majority of worms are L2 (based on size); majority of worms are L3 (based on size); majority of worms are L4 (based on size); AD: majority of worms are adult; #AD: 5 adult worms or less; B!: sterile (0-25 progeny); B: low broodsize (25-100 progeny); ˜B: moderate broodsize (100-250 progeny); <: reduced broodsize (250-500 progeny); OK: no effect (˜1000+ progeny)
Experimental: as §1

SMILES	5 Day Visual Score V6 [1]	5 Day Visual Score V5 [1]	5 Day Visual Score V4 [1]	5 Day Visual Score V3 [1]	5 Day Visual Score V2 [1]	5 Day Visual Score V1 [1]	Follow-up HTS Run % Run [2] [%]	Follow-up HTS Run Visual Score [2]	Follow-up HTS Run mOD [2] [mOD]	Initial HTS Run % Run [2] [%]	Initial HTS Run Visual Score [2]	Initial HTS Run mOD [2] [mOD]
Clc1cccc(Oc2cc(NCc3ccccc3Cl)ncn2)c1 [AKC 376]	OK (no effect (˜1000+ progeny))	OK (no effect (˜1000+ progeny))	OK (no effect (˜1000+ progeny))	OK (no effect (˜1000+ progeny))	OK (no effect (˜1000+ progeny))	L1	115	L2/L3/1AD	155	131	2AD/B	256
NS(=O)(=O)c1cccc(NC(=O)CCN2CCC(c3cccc4[nH]ccc34)CC2)c1 [AKC 377]	OK (no effect (˜1000+ progeny))	OK (no effect (˜1000+ progeny))	OK (no effect (˜1000+ progeny))	OK (no effect (˜1000+ progeny))		L1	109	L4/AD/B!-No P	147	113	3AD/B	220
FC(F)(F)c1cccc(CNc2cc(Oc3cccc(Cl)c3)ncn2)c1 [AKC 379]	OK (no effect (˜1000+ progeny))	OK (no effect (˜1000+ progeny))	OK (no effect (˜1000+ progeny))	OK (no effect (˜1000+ progeny))		Dead	107	L4/AD/B!	144	142	Dead/1AD	277
Fc1ccc(Oc2cc(NCc3cccc(C(F)(F)F)c3)ncn2)cc1 [AKC 380]	OK (no effect (˜1000+ progeny))	OK (no effect (˜1000+ progeny))	OK (no effect (˜1000+ progeny))	OK (no effect (˜1000+ progeny))		L1	102	L4/AD/B!	138	129	Dead	251
Fc1ccccc1Oc1cc(NCc2cccc(C(F)(F)F)c2)ncn1 [AKC 381]	OK (no effect (˜1000+ progeny))	OK (no effect (˜1000+ progeny))	OK (no effect (˜1000+ progeny))	< (reduced broodsize (250-500 progeny))	˜B (moderate broodsize (100-250 progeny))	L1	109	L4/AD/B!	147	138	Dead/1AD/B!	270
FC(F)(F)c1cccc(CNc2cc(Oc3ccc(-c4ccccc4)cc3)ncn2)c1 [AKC 382]	OK (no effect (˜1000+ progeny))	OK (no effect (˜1000+ progeny))	OK (no effect (˜1000+ progeny))	OK (no effect (˜1000+ progeny))		Dead	118		159	141	Dead	275
FC(F)(F)c1cccc(CNc2cc(Oc3ccccc3Cl)ncn2)c1 [AKC 383]	OK (no effect (˜1000+ progeny))	OK (no effect (˜1000+ progeny))	OK (no effect (˜1000+ progeny))	OK (no effect (˜1000+ progeny))	˜B (moderate broodsize (100-250 progeny))	L1	110	L4/AD/B!	149	132	5AD/B	257
CC(C)(C)OC(=O)NCc1ccc(-c2cccc(C(=O)Nc3ccc(S(N)(=O)=O)cc3)c2)cc1 [AKC 390]	OK (no effect (˜1000+ progeny))	OK (no effect (˜1000+ progeny))	OK (no effect (˜1000+ progeny))	OK (no effect (˜1000+ progeny))		L1	110	L4	148	133	B! (sterile (0-25 progeny))	260
C#Cc1cccc(N(CC(=O)Nc2ccc(S(N)(=O)=O)cc2)Cc2cccs2)c1 [AKC 394]	< (reduced broodsize (250-500 progeny))	OK (no effect (˜1000+ progeny))	OK (no effect (˜1000+ progeny))		Dead	Dead	111	Dead	150	135	Dead	264
CCCCCCCCCCCCNc1cc(Oc2ccccc2OC)ncn1 [AKC 398]	OK (no effect (˜1000+ progeny))	< (reduced broodsize (250-500 progeny))	OK (no effect (˜1000+ progeny))	#AD/˜B	Dead	Dead	93	Dead	126	118	Dead	231
CCCCCCCCCCCCNc1cc(Oc2ccccc2Cl)ncn1 [AKC 404]	OK (no effect (˜1000+ progeny))	OK (no effect (˜1000+ progeny))	OK (no effect (˜1000+ progeny))	OK (no effect (˜1000+ progeny))	Dead	Dead	124	Dead	168	155	Dead	302
CCC(NC(=O)Nc1ccc(NC(=O)C2CCCO2)cc1)c1cccc(S(N)(=O)=O)c1 (centres unmarked) [AKC 405]	OK (no effect (˜1000+ progeny))	OK (no effect (˜1000+ progeny))	OK (no effect (˜1000+ progeny))	#AD/˜B	L1	L1	120	1AD/B!	162	141	4AD/B	274
